PMC7939467, “Ascertaining the biochemical function of an essential pectin methylesterase in the gut microbe Bacteroides thetaiotaomicron” (The Journal of Biological Chemistry, 2021)
Like-named read-outs stand apart in the source and are kept apart here.

How the values were obtained:
[1] = biological target: T1, BT1017-SP (Bacteroides thetaiotaomicron, UniProt Q8A900); experiment: coupled spectrophotometric methanol release assay; type: biochemical; conditions: 1.7 μM enzyme, read-out: BT1017 constructs / BT1017-SP
T1 construct: gene BT_1017
T1 sequence (Q8A900 21-653): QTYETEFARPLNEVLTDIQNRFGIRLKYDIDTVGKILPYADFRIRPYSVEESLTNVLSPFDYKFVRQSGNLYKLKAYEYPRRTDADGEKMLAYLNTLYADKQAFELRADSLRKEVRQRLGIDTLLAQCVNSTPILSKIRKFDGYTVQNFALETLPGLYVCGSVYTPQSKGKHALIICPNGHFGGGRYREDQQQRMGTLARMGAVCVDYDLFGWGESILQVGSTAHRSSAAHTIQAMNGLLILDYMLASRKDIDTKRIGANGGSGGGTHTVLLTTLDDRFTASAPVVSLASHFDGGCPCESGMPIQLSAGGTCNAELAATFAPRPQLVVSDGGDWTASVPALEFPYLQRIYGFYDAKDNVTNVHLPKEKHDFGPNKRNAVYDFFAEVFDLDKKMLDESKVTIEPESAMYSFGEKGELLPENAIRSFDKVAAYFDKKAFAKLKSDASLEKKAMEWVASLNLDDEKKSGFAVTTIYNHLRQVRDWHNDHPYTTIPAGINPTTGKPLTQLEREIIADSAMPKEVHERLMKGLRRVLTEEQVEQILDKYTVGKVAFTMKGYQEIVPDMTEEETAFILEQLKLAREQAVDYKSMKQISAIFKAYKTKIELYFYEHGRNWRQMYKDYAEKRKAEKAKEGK
Text: coupled spectrophotometric methanol release assay on BT1017-SP

[2] = biological target: T2, BT1017-CM (Bacteroides thetaiotaomicron, UniProt Q8A900); experiment: coupled spectrophotometric methanol release assay; type: biochemical; conditions: 1.7 μM enzyme, pH and temperature not given (optimum pH 8.5, 37 °C), read-out: BT1017 constructs / BT1017-CM
T2 construct: gene BT_1017; crystal model residues 20-462 (text also gives module as 20-400); C-terminal His6; E. coli Tuner(DE3)
T2 sequence (Q8A900 20-462): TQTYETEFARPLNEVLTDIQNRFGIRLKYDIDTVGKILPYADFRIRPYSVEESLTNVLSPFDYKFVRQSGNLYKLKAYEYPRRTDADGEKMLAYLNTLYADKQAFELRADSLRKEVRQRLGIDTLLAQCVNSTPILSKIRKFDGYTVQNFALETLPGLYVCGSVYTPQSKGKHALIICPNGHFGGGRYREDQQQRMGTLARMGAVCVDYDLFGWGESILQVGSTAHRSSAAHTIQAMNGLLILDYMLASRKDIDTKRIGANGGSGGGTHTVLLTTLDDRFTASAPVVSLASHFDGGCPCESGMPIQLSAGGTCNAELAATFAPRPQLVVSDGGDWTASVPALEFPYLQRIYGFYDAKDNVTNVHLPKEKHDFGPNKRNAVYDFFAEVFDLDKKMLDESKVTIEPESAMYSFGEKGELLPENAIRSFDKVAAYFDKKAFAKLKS
Text: coupled spectrophotometric methanol release assay on BT1017-CM

## GlcA-β1,4-(2-O-Me-Xyl-α1,3)-Fuc-α1,4-(GalA-β1,3)-Rha-α1,3-Api-β1,2-(Araf-α1,3)-(GalA-α1,4)-GalA [ΔBT1017oligoB]
[1]; 0.046–1.38 mM substrate, pH and temperature of the kinetics not stated (optimum pH 8.5, 37 °C)
  Km: 200 ± 30 µM
[2]; 0.046–1.38 mM substrate
  Km: 400 ± 70 µM

## Rha-α1,3-Api-β1,2-(Araf-α1,3)-(6-O-Me-GalA-α1,4)-GalA [ΔBT1017oligoA]
[1]; 0.09–3.47 mM substrate, pH and temperature not given (optimum pH 8.5, 37 °C)
  Km: 3000 ± 400 µM
[2]; 0.09–3.47 mM substrate
  Km: 1000 ± 200 µM
